In one series the test system is A549. Nature of the series: In vitro cytotoxicity test of camptothecin payloads (CellTiter-Glo). The class given is cell-based. The following applies: Homo sapiens, A549, 72 h. As for the experimental part: (§1) Human lung adenocarcinoma cell line A549, NCI-N87, and SK-BR-3 were used to evaluate the cytotoxicity of small molecule fragment of the present invention. These cells were seeded to a 96-well plate at 2000 cells per well.
For orientation: In ATP-based viability assays light output follows the ATP content of the culture.

Another series relates to NCI-N87. The series is described as above. Format: cell-based. The following applies: Homo sapiens, NCI-N87, 72 h, read-out: NCI-N87 Cytotoxicity IC50 (nM). The method, then: as §1
Another series relates to SK-BR-3. The description is as above. The following applies: Homo sapiens, SK-BR-3, 72 h, read-out: SK-BR-3 Cytotoxicity IC50 (nM). Format: cell-based. As for the experimental part: as §1
The next series can be described thus: Rat PK study. Format: in vivo. The following applies: Sprague-Dawley (SD). The method, then: Male SD rat, 180-200 g (BK lab. Animal Ltd.), 3 Rats/group. Blood samples were collected by orbital vein after IV administration 1 mg/kg dosage at 0.083, 0.5, 1, 2, 4, and 8 h into heparin-containing tubes, centrifugated at 10000 rpm for 3 min to get plasma. All samples were stored at −20° C. until they were sent to Suzhou Chengyao Biotech Co., Ltd. for analysis.

The mark [1] stands for this setting: read-out: A549 Cytotoxicity IC50 (nM).
Setting [2] is: male, rat, in vivo, iv, 1 mg/kg.

Where two headings read alike, the source gives them in different places.

The values that follow come from US20240382608A1, “NOVEL LIGAND-DRUG CONJUGATE OF CAMPTOTHECIN ANALOGS, INTERMEDIATES, PHARMACEUTICAL COMPOSITION AND APPLICATION THEREOF” (SHANGHAI MICURX PHARMACEUTICAL CO., LTD., priority 2023, published 2024).

Usually IC50 stands for the concentration that gives 50% inhibition. Regarding `CC[C@@]1(O)C(=O)OCc2c1cc1n(c2=O)Cc2c-1nc1cc(F)c(N)c3c1c2C=CS3` [Example 2, (S)-4-amino-9-ethyl-5-fluoro-9-hydroxy-12,15-dihydro-13H-pyrano[3′,4′:6,7]indolizino[1,2-b]thiopyrano[4,3,2-de]quinoline-10,13(9H)-dione], the IC50 in the series with A549 (setting [1]) amounted to 0.8 nM.

Regarding `CC[C@@]1(O)C(=O)OCc2c1cc1n(c2=O)Cc2c-1nc1ccc(NC(=O)CO)c3c1c2C=CS3` [Example 13], the values for the IC50 in the series with A549 (setting [1]), in the series with NCI-N87 and in the series with SK-BR-3 were 26.4 nM, 21.7 nM and 52.3 nM, respectively.

In the case of `CC[C@@]1(O)C(=O)OCc2c1cc1n(c2=O)Cc2c-1nc1cc(F)c(C)c3c1c2[C@@H](NC(=O)CO)CC3` [drawing 109], the IC50 in the series on A549 (setting [1]) is 163 nM; with NCI-N87 it was 26 nM; in the series on SK-BR-3 it was 802 nM.

For the molecule `CC[C@@]1(O)C(=O)OCc2c1cc1n(c2=O)Cc2c-1nc1ccc(N)c3c1c2CCS3` [drawing 110], in the series on A549 (cell viability after 3 days, 2000 cells per well, read-out: A549 Cytotoxicity IC50), the IC50 worked out at 22.3 nM.

For `CC[C@@]1(O)C(=O)OCc2c1cc1n(c2=O)Cc2c-1nc1ccc(N)c3c1c2CCS3` [drawing 112], the MRT inf in “Rat PK study” (male SD rat, IV 1 mg/kg, plasma, read-out: MRT0-∞) was 114 min. Besides, the half-life in the series “Rat PK study” (male SD rat, IV 1 mg/kg, plasma, read-out: T1/2 (converted)) was 126 min. Besides, the Vd in the series “Rat PK study” (male SD rat, IV 1 mg/kg, plasma, read-out: Vss) amounted to 7.2 L/kg.

In the case of `CC[C@@]1(O)C(=O)OCc2c1cc1n(c2=O)Cc2c-1nc1ccc(N)c3c1c2C=CS3` [Example 1, (S)-4-amino-9-ethyl-9-hydroxy-12,15-dihydro-13H-pyrano[3′,4′:6,7]indolizino[1,2-b]thiopyrano[4,3,2-de]quinoline-10,13(9H)-dione], the IC50 with A549 (setting [1]) stood at 10.7 nM. Besides, the IC50 in the series with NCI-N87 was found to be 5.2 nM. In the series with SK-BR-3, the IC50 was found to be 38.6 nM. Moreover, in the series “Rat PK study” (setting [2]), the MRT inf came to 12 min, the Vd came to 0.9 L/kg and the half-life was 18 min.

With `CC[C@@]1(O)C(=O)OCc2c1cc1n(c2=O)Cc2c-1nc1cc(F)c(C)c3c1c2[C@@H](NC(=O)CO)CC3` [drawing 111], the MRT inf in the series “Rat PK study” (in vivo, male SD rat, IV 1 mg/kg, plasma, read-out: MRT0-∞) was 30 min. The half-life in “Rat PK study” (in vivo, male SD rat, IV 1 mg/kg, plasma, read-out: T1/2 (converted)) was 30 min. Also, in the series “Rat PK study” (in vivo, male SD rat, IV 1 mg/kg, plasma, read-out: Vss), the Vd stood at 20.6 L/kg.
